Measured values: patent US7585875B2, “Substituted pyrazolo[1,5-a]pyridine compounds and their methods of use” (Avigen, Inc., priority 2006, dated 2009)
Where a name gives a salt, the structure may show the parent alone. Read-outs that look alike come from different tables or passages of the source.

Columns and labels:
[1] = target: phosphodiesterase (PDE) enzyme derived from bovine brain; test: Inhibition of PDE (PDELight kit, cAMP substrate); format: biochemical; details: PDE from brain extract, cAMP as substrate
Procedure: In a 96-well plate, phosphodiesterase (PDE) enzyme (0.5-1 mU/well) derived from bovine brain (Sigma) was combined with 5 uM cAMP substrate (Sigma). Test compounds (0-200 uM) or vehicle (0.5% DMSO) were added to the enzyme/substrate and incubated for 1 hour. Using a PDELight® kit (Cambrex), the amount of AMP produced in the reaction from the hydrolysis of cAMP was quantified using PDELight AMP Detection Reagent which converts the AMP directly to ATP. The assay uses luciferase, which catalyses the formation of light from the newly formed ATP and luciferin. The luminescence was read on a Victor Light 1420 luminometer. IC50 calculations were plotted using a nonlinear regression curve fit.

[2] = system: TNF-α production in LPS-stimulated human peripheral blood mononuclear cells; test: Inhibition of LPS-stimulated TNF-α release from PBMCs; format: cell-based; details: PBMC
Procedure: (§1) IC50 values were determined for representative compounds of the invention based upon their ability to inhibit LPS-induced cytokine production in human peripheral blood mononuclear cells. Human PBMCs (peripheral blood mononuclear cells) were isolated over a Ficoll gradient from buffy coats obtained from the local Red Cross. 10^6 PBMC cells/well were seeded in 24-well tissue culture plates in RPMI 1640 medium supplemented with 10% human serum, hepes buffer and sodium pyruvate. The cells were treated with 0.1% DMSO (vehicle) or test compounds (1, 10, and 100 uM) 30 minutes prior to activation with LPS (lipopolysaccharide) (E. Coli) at 10 ng/mL. 6-10 hours post LPS stimulation the culture supernatants were collected and levels of cytokines TNF-α and IL-1β were quantified by ELISA (R&D Systems) and/or Luminex (Linco Diagnostics). IC50 calculations were plotted using a nonlinear regression curve fit for exemplary substituted pyrazolo[1,5-a]pyridine compounds of the invention; results are provided in Table 2.

[3] = system: IL-1β production in LPS-stimulated human peripheral blood mononuclear cells; test: Inhibition of LPS-stimulated IL-1β release from PBMCs; format: cell-based; details: PBMC, LPS-stimulated cytokine release from PBMCs
Procedure: as §1

[4] = system: mechanical allodynia after chronic constriction injury (CCI) to the sciatic nerve; test: Mechanical allodynia by response to von Frey fibers, rat chronic constriction injury (CCI) model; format: in vivo, male Sprague-Dawley rats; details: 2 hr post dosing
Excerpt: Chronic Constriction Injury: Heat and cold allodynia responses as well as mechanical allodynia sensations can be evaluated as described below in rats having a chronic constriction injury (CCI). A unilateral mononeuropathy is produced in rats using the chronic constriction injury model described in Bennett et al., Pain (1988) 33:87-107. CCI is produced in anesthetized rats as follows. The lateral aspect of each rat's hind limb is shaved and scrubbed with Nolvasan. Using aseptic techniques, an incision is made on the lateral aspect of the hind limb at the mid-thigh level. The biceps femoris is bluntly dissected to expose the sciatic nerve. On the right hind limb of each rat, four loosely tied ligatures (for example, Chromic gut 4.0; Ethicon, Johnson and Johnson, Somerville, N.J.) are made around the sciatic nerve approximately 1-2 mm apart. On the left side of each rat, an identical dissection is performed except that the sciatic nerve is not ligated (sham). The muscle is closed with a continuous suture pattern with, e.g., 4-0 Vicryl (Johnson and Johnson, Somerville, N.J.) and the overlying skin is closed with wound clips. The rats are ear-tagged for identification purposes and returned to animal housing.
To induce allodynia, male Sprague-Dawley rats underwent chronic constriction injury (CCI) to the sciatic nerve as described by Bennett and Xie, Pain 1988; 33(1):87-107. The plantar surface of the hind paws was stimulated with von Frey filaments (Stoelting) to induce a withdrawal response by blinded personnel. The bending force of fiber required to induce a 50% withdrawal response was calculated following CCI surgery (pre-dosing baseline). N=5-6 allodynic rats received a single intraperitoneal administration of test compound or vehicle. Two hours post-dosing, 50% paw withdrawal threshold was determined again by blinded testers using von Frey filaments. The change in 50% withdrawal threshold relative to pre-dosing baseline is reported in Table 2 for various substituted pyrazolo[1,5-a]pyridine compounds of the invention.

[5] = LPS-stimulated cytokine release from PBMCs, read-out: TNF-α (IC50)
[6] = less than or equal to about 50 μM, PBMCs, read-out: IC50, LPS-induced cytokine production (cytokine not specified)

SMILES | IC50 [1] [µM] | IC50 [2, 5] [µM] | IC50 [2, 6] [µM] | IC50 [3] [µM] | Mechanical Allodynia ΔWT (change from pre-dosing 50% withdrawal threshold) ([4]; 10 mg/kg IP) | Mechanical Allodynia ΔWT (change from pre-dosing 50% withdrawal threshold) ([4]; 20 mg/kg IP)
CC(C)c1nn2ccccc2c1C(=O)C(C)(C)O [compound 1004, 2-hydroxy-1-(2-isopropylpyrazolo[1,5-a]pyridin-3-yl)-2-methylpropan-1-one] | 12.6 | 28.8 | ≤ 50 | > 100 | 0.48 grams | –
CC(C)c1nn2ccccc2c1C(=O)c1ncccc1Cl [Compound 1038, (3-chloropyridin-2-yl)(2-isopropylpyrazolo[1,5-a]pyridin-3-yl)methanone] | 26.4 | – | – | – | 0.32 grams | –
COc1ccc2c(C(=O)C(C)C)c(C(C)C)nn2c1 [compound 1005, 1-(2-isopropyl-6-methoxypyrazolo[1,5-a]pyridin-3-yl)-2-methylpropan-1-one] | 59.5 | 76 | – | – | 0.17 grams | –
CC(C)c1nn2ccccc2c1C(=O)C(C)N1CCCCC1 (stereo not shown) [Compound 1036, 1-(2-isopropylpyrazolo[1,5-a]pyridin-3-yl)-2-(piperidin-1-yl)propan-1-one hydrochloride] | > 200 | – | – | – | 0 grams | –
COc1ccc(C(=O)c2c(C(C)C)nn3ccccc23)cc1 [Compound 1008, (2-isopropylpyrazolo[1,5-a]pyridin-3-yl)(4-methoxyphenyl)methanone] | 5.8 | 50 | ≤ 50 | > 100 | 0.84 grams | –
CC(C)C(=O)c1c(-c2ccc(Cl)cc2)nn2ccccc12 [Compound 1024, 1-(2-(4-chlorophenyl)pyrazolo[1,5-a]pyridin-3-yl)-2-methylpropan-1-one] | 18.2 | – | ≤ 50 | – | 0.43 grams | –
CC(C)c1nn2ccccc2c1C(=O)C(N)c1ccccc1 (stereo not shown) [Compound 1039, 2-amino-1-(2-isopropylpyrazolo[1,5-a]pyridin-3-yl)-2-phenylethanone] | 8.2 | – | – | – | 0.05 grams | –
CC(C)C(=NO)c1c(-c2ccc(Cl)cc2)nn2ccccc12 [Compound 1025, 1-(2-(4-chlorophenyl)pyrazolo[1,5-a]pyridin-3-yl)-2-methylpropan-1-one oxime] | 23 | – | – | – | 0.81 grams | –
CC(C)c1nn2ccccc2c1C(=O)C(C)N(C)Cc1ccccc1 (stereo not shown) [Compound 1041, 2-(benzyl(methyl)amino)-1-(2-isopropylpyrazolo[1,5-a]pyridin-3-yl)propan-1-one] | 21.5 | – | – | – | 0.22 grams | –
COc1ccc(-c2nn3ccccc3c2C(=NO)C(C)C)cc1 [Compound 1022, 1-(2-(4-methoxyphenyl)pyrazolo[1,5-a]pyridin-3-yl)-2-methylpropan-1-one oxime] | 23.9 | – | – | – | 0 grams | –
CC(C)C(=O)c1c(C(C)(C)O)nn2ccccc12 [compound 1003, 1-(2-(2-hydroxypropan-2-yl)pyrazolo[1,5-a]pyridin-3-yl)-2-methylpropan-1-one] | > 100 | – | – | – | 0 grams | –
CC(C)C(=O)c1c(-c2ccccc2)nn2ccccc12 [Compound 1015, 2-methyl-1-(2-phenylpyrazolo[1,5-a]pyridin-3-yl)propan-1-one] | 80 | > 100 | – | > 100 | 0.51 grams | –
CC(C)c1nn2ccccc2c1C(NCC1CC1)C(C)C (stereo not shown) [Compound 1048, N-(cyclopropylmethyl)-1-(2-isopropylpyrazolo[1,5-a]pyridin-3-yl)-2-methylpropan-1-amine hydrochloride] | > 200 | – | – | – | 0 grams | –
CCC(=O)c1c(CC)nn2ccccc12 [Compound 1040, 1-(2-ethylpyrazolo[1,5-a]pyridin-3-yl)propan-1-one] | 27.1 | – | – | – | 0.12 grams | –
COc1ccc(-c2nn3ccccc3c2C(=O)C(C)C)cc1 [Compound 1021, 1-(2-(4-methoxyphenyl)pyrazolo[1,5-a]pyridin-3-yl)-2-methylpropan-1-one] | > 200 | – | – | – | 0.45 grams | –
COc1ccc(-c2nn3ccccc3c2C(=NOC(N)=O)C(C)C)cc1 [Compound 1023, 1-(2-(4-methoxyphenyl)pyrazolo[1,5-a]pyridin-3-yl)-2-methylpropan-1-one O-carbamoyl oxime] | 156 | – | – | – | – | –
CC(C)C(=NOC(N)=O)c1c(-c2ccc(Cl)cc2)nn2ccccc12 [Compound 1026, 1-(2-(4-chlorophenyl)pyrazolo[1,5-a]pyridin-3-yl)-2-methylpropan-1-one O-carbamoyl oxime] | 27.7 | – | – | – | 1.14 grams | –
CC(NC1CC1)C(=O)c1c(C(C)C)nn2ccccc12 (stereo not shown) [Compound 1045, 2-(cyclopropylamino)-1-(2-isopropylpyrazolo[1,5-a]pyridin-3-yl)propan-1-one hydrochloride] | 61.1 | – | – | – | 0 grams | –
CC(C)c1nn2ccccc2c1C(=O)C(C)N1CCOCC1 (stereo not shown) [Compound 1034, 1-(2-isopropylpyrazolo[1,5-a]pyridin-3-yl)-2-morpholinopropan-1-one hydrochloride] | 43.3 | – | – | – | 10 mg/kg: 1.71 grams | 20 mg/kg: 0.54 grams
CC(C)c1nn2ccccc2c1C(=O)C(C)N1CCNCC1 (stereo not shown) [Compound 1037, 1-(2-isopropylpyrazolo[1,5-a]pyridin-3-yl)-2-(piperazin-1-yl)propan-1-one hydrochloride] | > 200 | – | – | – | 0 grams | –
CC(C)C(=NOC(N)=O)c1c(-c2ccccc2)nn2ccccc12 [Compound 1017, 2-methyl-1-(2-phenylpyrazolo[1,5-a]pyridin-3-yl)propan-1-one O-carbamoyl oxime] | > 200 | – | – | – | 0.91 grams | –
CC(C)c1nn2ccccc2c1C(NC1CC1)C(C)C (stereo not shown) [Compound 1044, N-(1-(2-isopropylpyrazolo[1,5-a]pyridin-3-yl)-2-methylpropyl)cyclopropanamine] | > 200 | – | – | – | 0.08 grams | –
CC(C)=Cc1c(C(C)C)nn2ccccc12 [compound 1049, 2-isopropyl-3-(2-methylprop-1-enyl)pyrazolo[1,5-a]pyridine] | 92.5 | – | – | – | 0 grams | –
CNC(C)C(=O)c1c(C(C)C)nn2ccccc12 (stereo not shown) [Compound 1042, 1-(2-isopropylpyrazolo[1,5-a]pyridin-3-yl)-2-(methylamino)propan-1-one hydrochloride] | 31.9 | – | – | – | 10 mg/kg: 0.37 grams | 20 mg/kg: 0.22 grams
CC(C)c1nn2ccccc2c1C(=O)C(C)N1CCN(C)CC1 (stereo not shown) [Compound 1035, 1-(2-isopropylpyrazolo[1,5-a]pyridin-3-yl)-2-(4-methylpiperazin-1-yl)propan-1-one hydrochloride] | 198 | – | – | – | 0 grams | –
